Laboratory results reported in patent US12268747B2, “Polypeptides having anti-senescent effects and uses thereof” (OneSkin, Inc., priority 2019, dated 2025).
Peptide text beside a SMILES is read from it.

Legend:
[1] = tested on: Primary fibroblasts from Progeria patients; experiment: Polypeptide library screen: SA-B-galactosidase senescence and cell number in Progeria fibroblasts; format: cell-based, human; settings: 10 μM, 48 hours
Description: Primary fibroblasts isolated from Progeria patients can constitute a genetic model of early aging and cellular senescence in humans. Primary fibroblasts from Progeria patients were cultured in DMEM (Dulbecco's Modified Eagle's Medium) supplemented with 10% v.v. fetal bovine serum (FBS), and 1% v.v. of penicillin/streptomycin solution (1,000 U·mL−1). Cells were kept in a 5% CO2, 37° C. and 95% humidity atmosphere. After expansion, these cells were seeded in 96-well plates (1,000 cells per well) and, 6 hours after plating, were incubated with individual polypeptides from a proprietary library at 50 μM for 48 hours. Negative control comprised untreated cells, which received vehicle only; positive control group comprised cells incubated with 10 μM ABT-263, a senolytic compound for the same period. […] Three independent experiments including three technical replicates were performed.

[2] = tested on: human primary fibroblasts isolated from 3 healthy donors, etoposide-stressed; experiment: Etoposide-induced senescence in fibroblasts; format: cell-based; settings: etoposide 20 μM, 24 hours
Description: Cellular senescence may be caused by several different stimuli. In order to assess whether Peptide 14 was effective against UVB-induced and chemically-induced senescence, human primary fibroblasts isolated from 3 healthy donors were used. These cells were cultured in DMEM (Dulbecco's Modified Eagle's Medium) supplemented with 10% v.v. fetal bovine serum (FBS), and 1% v.v. of penicillin/streptomycin solution (1,000 U·mL−1). Cells were kept in a 5% CO2, 37° C. and 95% humidity atmosphere. After expansion, these cells were seeded in 96-well plates (4,000 cells per well) and, 6 hours after plating, were submitted to either etoposide (20 μM) treatment for 24 hours, or exposed twice to 0.05 J/cm^2 of UVB radiation. […] After incubation, relative cellular senescence (assessed by the activity of senescence associated β-galactosidase staining relative to untreated control) was analyzed and plotted in column graphs. ATRX foci were also assessed following ATRX immunofluorescence staining. Graphs were built using the average ATRX foci detected per nuclei. […] Data was analyzed using with either t-test or ANOVA followed by a Bonferroni post-hoc test. Statistical significance was determined as p-values equal or lower than 0.05 (FIG. 6).

[3] = tested on: Primary fibroblasts from Progeria patients; experiment: Senescence (SA-β-galactosidase, ATRX foci) in Progeria fibroblasts, short sequences; format: cell-based, human; settings: 500 nM, 5 μM, 50 μM
Description: Skin cells from Progeria patients were used as a model of aging because of the high levels of cellular senescence. Primary fibroblasts from Progeria patients were cultured in DMEM (Dulbecco's Modified Eagle's Medium) supplemented with 10% v.v. fetal bovine serum (FBS), and 1% v.v. of penicillin/streptomycin solution (1,000 U·mL−1). Cells cultured at 5% CO2, 37° C. and 95% humidity atmosphere. After expansion, the cells were seeded in 96-well plates (4,000 cells per well) and, 6 hours after plating, were incubated with 500 nM, 5 μM or 50 μM of polypeptide sequence LKGIL (SEQ ID NO: 6) or WLKGI (SEQ ID NO: 7). Negative control comprised untreated cells, which received vehicle only. After incubation, relative cellular senescence, which was assessed by the activity of senescence associated β-galactosidase staining relative to untreated control and by the quantification of ATRX foci/nuclei, was analyzed. Three independent experiments (biological replicates) including three technical replicates were performed. Data was analyzed using ANOVA and a Bonferroni post-hoc test. Statistical significance was determined as p values equal or lower than 0.05, where *p<0.05 and ** p<0.01.

[4] = tested on: Primary fibroblasts isolated from 3 healthy chronologically aged patients; experiment: SA-B-galactosidase senescence in fibroblasts of aged donors, concentration series; format: cell-based, human; settings: 1.56-50 μM (Peptide 16: 1.56-25 μM), 48 hours; in at least one of the tested concentrations
Description: Primary fibroblasts isolated from 3 healthy chronologically aged patients were used. Cells were cultured in DMEM (Dulbecco's Modified Eagle's Medium) supplemented with 10% v.v. fetal bovine serum (FBS), and 1% v.v. of penicillin/streptomycin solution (1,000 U·mL−1). Cells were kept in a 5% CO2, 37° C. and 95% humidity atmosphere. After expansion, these cells were seeded in 96-well plates (4,000 cells per well) and, 6 hours after plating the cells were treated with one of 4 senotherapeutic polypeptides (Peptide 14, Peptide 13, Peptide 15, and Peptide 16) and incubated for 48 hours. Each polypeptide was tested at 6 different concentrations: 50 μM, 25 μM, 12.5 μM, 6.25 μM, 3.12 μM, and 1.56 μM, except for Peptide 16, which was tested at 5 different concentrations: 25 μM, 12.5 μM, 6.25 μM, 3.12 μM, and 1.56 μM. A negative control comprised untreated cells, which received vehicle only. After incubation, relative cellular senescence (assessed by the activity of senescence associated B-galactosidase staining relative to untreated control) was analyzed (FIG. 2, panels A-D), in which the Y axis indicates the relative senescence levels normalized to untreated control. Each column corresponds to a different concentration of a polypeptide. Three independent experiments (biological replicates) including three technical replicates were performed. Data was analyzed using Analysis of Variance (ANOVA) and a Bonferroni post-hoc tests. Statistical significance was determined as p values equal or lower than 0.05.

Compound: CC1(C)CCC(c2ccc(Cl)cc2)=C(CN2CCN(c3ccc(C(=O)NS(=O)(=O)c4ccc(N[C@H](CCN5CCOCC5)CSc5ccccc5)c(S(=O)(=O)C(F)(F)F)c4)cc3)CC2)C1 [ABT-263]
- cellular toxicity (cell number) [1]: cellular toxicity
- cellular senescence (SA-B-galactosidase staining) ([1]; positive control): significant reduction

Compound: COc1cc([C@@H]2c3cc4c(cc3[C@@H](O[C@@H]3O[C@@H]5CO[C@@H](C)O[C@H]5[C@H](O)[C@H]3O)[C@H]3COC(=O)[C@H]23)OCO4)cc(OC)c1O [Etoposide, etoposide]
- ATRX foci nuclear accumulation (average ATRX foci/cell) [2]: significant increase
- cellular senescence level [2]: significant increase

Compound: CC[C@H](C)[C@H](NC(=O)CNC(=O)[C@H](CCCCN)NC(=O)[C@@H](N)CC(C)C)C(=O)N[C@@H](CC(C)C)C(=O)O [LKGIL] (H-LKGIL-OH; N-terminus and C-terminus assumed)
- cellular toxicity (relative cell number) [3]: No cellular toxicity

Compound: CC[C@H](C)[C@H](NC(=O)CNC(=O)[C@H](CCCCN)NC(=O)[C@H](CC(C)C)NC(=O)[C@@H](N)Cc1c[nH]c2ccccc12)C(=O)O [WLKGI] (H-WLKGI-OH; N-terminus and C-terminus assumed)
- cellular toxicity (relative cell number) [3]: No cellular toxicity

Compound: KLKGILRGAA [Peptide 15]
- relative cellular senescence (SA-B-galactosidase staining) vs untreated control [4]: senotherapeutic effects

Compound: WLKGILREAA [Peptide 16]
- relative cellular senescence (SA-B-galactosidase staining) vs untreated control [4]: senotherapeutic effects
